From patent US9585891B2 (MERCK PATENT GMBH, priority 2012, dated 2017)

Tests used:
[1] = target: T1, Human recombinant Vanin-1 (VNN1) (Homo sapiens, UniProt O95497); experiment: Vanin-1 enzymatic assay (fluorescence intensity, Pantothenate-AMC substrate); assay type: biochemical; conditions: purified recombinant human Vanin-1 0.5 nM; 30 min preincubation at 30° C.; Pantothenate-AMC 30 μM, 60 min
T1 construct: purchased Sino Biological Inc. 11662-H08H
T1 sequence (O95497 22-491): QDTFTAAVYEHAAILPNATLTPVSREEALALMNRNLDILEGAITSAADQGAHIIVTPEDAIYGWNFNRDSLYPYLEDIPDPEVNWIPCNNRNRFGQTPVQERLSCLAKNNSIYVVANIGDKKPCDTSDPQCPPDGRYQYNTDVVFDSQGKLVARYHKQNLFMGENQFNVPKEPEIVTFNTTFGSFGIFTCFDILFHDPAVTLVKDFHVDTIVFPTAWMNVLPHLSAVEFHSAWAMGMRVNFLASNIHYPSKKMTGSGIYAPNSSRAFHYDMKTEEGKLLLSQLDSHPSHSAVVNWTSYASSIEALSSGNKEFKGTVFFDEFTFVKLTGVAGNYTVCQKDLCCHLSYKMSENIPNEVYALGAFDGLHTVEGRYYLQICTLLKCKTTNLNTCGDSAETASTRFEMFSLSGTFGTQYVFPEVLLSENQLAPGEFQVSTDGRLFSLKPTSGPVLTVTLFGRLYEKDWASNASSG
Protocol: Human recombinant Vanin-1 (VNN1) was purchased from Sino Biological Inc. (Catalog Number: 11662-H08H).
Measurement of VNN1 inhibition is performed in 384-well format based on fluorescence intensity assay. Purified recombinant human Vanin-1 (0.5 nM) and threefold serial diluted compounds in 3% DMSO (range of concentrations from 30 μM to 1.524 nM) or controls (3.0% DMSO) are incubated for 30 minutes at 30° C. with gentle agitation in assay buffer containing 100 mM potassium Phosphate Buffer (KPi), pH 7.5, 0.001% Bovine Serum Albumin (BSA), 0.5 mM dithiothreitol (DTT) and 0.0025% Brij-35. The reaction is initiated by the addition of the fluorogenic substrate, Pantothenate-AMC, at a concentration of 30 μM. After 60 minutes of incubation at 30° C. with gentle agitation, fluorescence intensity is measured at λex=350 nm and λem=450 nm with a fluorescence reader (BMG PHERAstar reader or equivalent).

[2] = target: T2, Vanin-1 in SUIT-S2 cell line (Homo sapiens, UniProt O95497); experiment: Vanin-1 cell-based mechanistic assay (fluorescence intensity, Pantothenate-AMC substrate); conditions: 40000 cells per well, 2 hours incubation at 37° C., Pantothenate-AMC 30 μM, 30 min
T2 construct: endogenous in cells; host or cells: SUIT-S2 cell line (ATCC # CRL1596)
T2 sequence (O95497 22-491): T1 sequence (O95497 22-491)
Protocol: Vanin-1 Cell-Based Mechanistic Assay:
The cellular activity of the examples is measured in 96-well format based on fluorescence intensity assay using SUIT-S2 cell line (ATCC # CRL1596).
Cells are cultured at 37° C. with 5% CO2 to 80-90% confluence and then washed once with phosphate-buffered saline (PBS). Adherent cells are detached with PBS-EDTA and once in suspension 40000 cells are dispensed in 90 μl of PBS in 96-well black plates with clear bottoms. Threefold serial dilutions of test compounds are made in DMSO and then solubilized in PBS, dilution range 1:30. Cells and serial diluted test compounds (final concentrations 10 μM to 4.6 nM) or controls (PBS/0.3% DMSO) are incubated for 2 hours at 37° C. with 5% CO2. The reaction is initiated by the addition of the fluorogenic substrate, Pantothenate-AMC, at a concentration of 30 μM. After 30 minutes of incubation at 30° C. with gentle agitation, fluorescence intensity is measured at λex=350 nm and λem=450 nm with a fluorescence reader (BMG PHERAstar reader or equivalent).

## CC(=O)/C=C/CCNC(=O)[C@H](O)C(C)(C)CO [Example 5, (R)-2,4-Dihydroxy-3,3-dimethyl-N-((E)-5-oxo-hex-3-enyl)-butyramide]
[1]
  IC50: 3310 nM
[2]
  IC50: 3200 nM

## CC(C)(CO)[C@@H](O)C(=O)NCCN(Cc1ccccc1)C(=O)CCl [Example 60, (R)—N-{2-[Benzyl-(2-chloro-acetyl)-amino]-ethyl}-2,4-dihydroxy-3,3-dimethyl-butyramide]
[1]
  IC50: 3570 nM
[2]
  IC50: 600 nM

## CC(C)(CO)[C@@H](O)C(=O)NCCC(=O)C(=O)NC1CC1 [Example 8, (R)—N-(3-Cyclopropylcarbamoyl-3-oxo-propyl)-2,4-dihydroxy-3,3-dimethyl-butyramide]
[1]
  IC50: 1680 nM
[2]
  IC50: 3540 nM

## CC(C)(CO)[C@@H](O)C(=O)NCCC(=O)C(=O)NCc1cccc(OCCNS(C)(=O)=O)c1 [Example 26, (R)-2,4-Dihydroxy-N-{3-[3-(2-methanesulfonylamino-ethoxy)-benzylcarbamoyl]-3-oxo-propyl}-3,3-dimethyl-butyramide]
[1]
  IC50: 380 nM
[2]
  IC50: 260 nM

## CC(C)(CO)[C@@H](O)C(=O)NCCC(=O)C(=O)NCc1ccccc1 [Example 9, (R)—N-(3-Benzylcarbamoyl-3-oxo-propyl)-2,4-dihydroxy-3,3-dimethyl-butyramide]
[1]
  IC50: 40 nM
[2]
  IC50: 30 nM

## CC(C)(CO)[C@@H](O)C(=O)NCCC(=O)C(=O)NCCc1cccs1 [Example 14, (R)-2,4-Dihydroxy-3,3-dimethyl-N-[3-oxo-3-(2-thiophen-2-yl-ethylcarbamoyl)-propyl]-butyramide]
[1]
  IC50: 50 nM
[2]
  IC50: 90 nM

## COc1cccc(CNC(=O)C(=O)CCNC(=O)[C@H](O)C(C)(C)CO)c1 [Example 22, (R)-2,4-Dihydroxy-N-[3-(3-methoxy-benzylcarbamoyl)-3-oxo-propyl]-3,3-dimethyl-butyramide]
[1]
  IC50: 60 nM
[2]
  IC50: 30 nM

## C=CC(=O)CCNC(=O)[C@H](O)C(C)(C)CO [Example 3, (R)-2,4-Dihydroxy-3,3-dimethyl-N-(3-oxo-pent-4-enyl)-butyramide]
[1]
  IC50: 9250 nM
[2]
  IC50: 1270 nM

## CC(C)(CO)[C@@H](O)C(=O)NCCC(=O)/C=C/Cc1ccccc1 [Example 4, (R)-2,4-Dihydroxy-3,3-dimethyl-N-((E)-3-oxo-6-phenyl-hex-4-enyl)-butyramide]
[1]
  IC50: 2010 nM
[2]
  IC50: 1190 nM

## CC(C)(CO)[C@@H](O)C(=O)NCCC(=O)C(=O)NCc1ccccc1C(F)(F)F [Example 23, (R)-2,4-Dihydroxy-3,3-dimethyl-N-[3-oxo-3-(2-trifluoromethyl-benzylcarbamoyl)-propyl]-butyramide]
[1]
  IC50: 70 nM
[2]
  IC50: 50 nM

## CC(C)(CO)[C@@H](O)C(=O)NCCC(=O)C(=O)NCc1ccc(S(=O)(=O)N2CCCCC2)cc1 [Example 33, (R)-2,4-Dihydroxy-3,3-dimethyl-N-{3-oxo-3-[4-(piperidine-1-sulfonyl)-benzylcarbamoyl]-propyl}-butyramide]
[1]
  IC50: < 10 nM
[2]
  IC50: < 10 nM

## CC(C)(CO)[C@@H](O)C(=O)NCCC(=O)C(=O)NCc1ccc(Br)cc1 [Example 31, (R)—N-[3-(4-Bromo-benzylcarbamoyl)-3-oxo-propyl]-2,4-dihydroxy-3,3-dimethyl-butyramide]
[1]
  IC50: < 10 nM
[2]
  IC50: 10 nM

## CC(C)(CO)[C@@H](O)C(=O)NCCN(CC1CCN(c2ccc(C#N)cc2)CC1)C(=O)CCl [Example 62, (R)—N-(2-{(2-Chloro-acetyl)-[1-(4-cyano-phenyl)-piperidin-4-ylmethyl]-amino}-ethyl)-2,4-dihydroxy-3,3-dimethyl-butyramide]
[1]
  IC50: 1360 nM
[2]
  IC50: 210 nM

## CC(C)(CO)[C@@H](O)C(=O)NCCC(=O)C(=O)NCc1ccccc1F [Example 10, (R)—N-[3-(2-Fluoro-benzylcarbamoyl)-3-oxo-propyl]-2,4-dihydroxy-3,3-dimethyl-butyramide]
[1]
  IC50: 30 nM
[2]
  IC50: 25 nM

## CC(C)(CO)[C@@H](O)C(=O)NCCNC(=O)CCl [Example 57, (R)—N-[2-(2-Chloro-acetylamino)-ethyl]-2,4-dihydroxy-3,3-dimethyl-butyramide]
[1]
  IC50: 2540 nM
[2]
  IC50: 1110 nM

## CC(C)(CO)[C@@H](O)C(=O)NCCC(=O)C(=O)NCc1ccc(S(C)(=O)=O)cc1 [Example 24, (R)-2,4-Dihydroxy-N-[3-(4-methanesulfonyl-benzylcarbamoyl)-3-oxo-propyl]-3,3-dimethyl-butyramide]
[1]
  IC50: 10 nM
[2]
  IC50: < 10 nM

## CC(C)(CO)[C@@H](O)C(=O)NCCC(=O)C(=O)NCc1ccc(-c2ccccc2)cc1 [Example 28, (R)—N-{3-[(Biphenyl-4-ylmethyl)-carbamoyl]-3-oxo-propyl}-2,4-dihydroxy-3,3-dimethyl-butyramide]
[1]
  IC50: 20 nM
[2]
  IC50: 100 nM

## CC(C)(CO)[C@@H](O)C(=O)NCCC(=O)C(=O)NCc1cccc2ccccc12 [Example 19, (R)-2,4-Dihydroxy-3,3-dimethyl-N-{3-[(naphthalen-1-ylmethyl)-carbamoyl]-3-oxo-propyl}-butyramide]
[1]
  IC50: 30 nM
[2]
  IC50: 50 nM

## CC(C)(CO)[C@@H](O)C(=O)NCC/C=C/C(=O)CCc1ccccc1 [Example 6]
[1]
  IC50: 5790 nM
[2]
  IC50: 670 nM

## CC(C)(CO)[C@@H](O)C(=O)NCCC(=O)C(=O)NCc1cccc(OC(F)(F)F)c1 [Example 15, (R)-2,4-Dihydroxy-3,3-dimethyl-N-[3-oxo-3-(3-trifluoromethoxy-benzylcarbamoyl)-propyl]-butyramide]
[1]
  IC50: 50 nM
[2]
  IC50: 140 nM

## CC(C)(CO)[C@@H](O)C(=O)NCCC(=O)C(=O)NCc1ccc(OCCNS(C)(=O)=O)cc1 [Example 39, (R)-2,4-Dihydroxy-N-(3-[4-(2-methanesulfonylamino-ethoxy)-benzylcarbamoyl]-3-oxo-propyl)-3,3-dimethyl-butyramide]
[1]
  IC50: 20 nM
[2]
  IC50: < 10 nM

## CC(C)(CO)[C@@H](O)C(=O)NCCC(=O)C(=O)NCC1CCCCC1 [Example 11, (R)—N-[3-(Cyclohexylmethyl-carbamoyl)-3-oxo-propyl]-2,4-dihydroxy-3,3-dimethyl-butyramide]
[1]
  IC50: 30 nM
[2]
  IC50: 73 nM

## CC(C)(CO)[C@@H](O)C(=O)NCCN(CCOc1ccc(S(C)(=O)=O)cc1)C(=O)CCl [Example 64, (R)—N-(2-{(2-Chloro-acetyl)-[2-(4-methanesulfonyl-phenoxy)-ethyl]-amino}-ethyl)-2,4-dihydroxy-3,3-dimethyl-butyramide]
[1]
  IC50: 3440 nM

## COC(=O)c1ccc(OCCN(CCNC(=O)[C@H](O)C(C)(C)CO)C(=O)CCl)cc1 [Example 65, 4-(2-{(2-Chloro-acetyl)-[2-((R)-2,4-dihydroxy-3,3-dimethyl-butyrylamino)-ethyl]-amino}-ethoxy)-benzoic acid methyl ester]
[1]
  IC50: 3990 nM

## CC(C)(CO)[C@@H](O)C(=O)NCCC(=O)C(=O)NC1CCCCC1 [Example 18, (R)—N-(3-Cyclohexylcarbamoyl-3-oxo-propyl)-2,4-dihydroxy-3,3-dimethyl butyramide]
[1]
  IC50: 3350 nM

## CC(C)(CO)[C@@H](O)C(=O)NCCN(CCOc1ccccc1)C(=O)CCl [Example 63, (R)—N-{2-[(2-Chloro-acetyl)-(2-phenoxy-ethyl)-amino]-ethyl}-2,4-dihydroxy-3,3-dimethyl-butyramide]
[1]
  IC50: 3550 nM

## CC(C)(CO)[C@@H](O)C(=O)NCCC(=O)C(=O)NCc1ccc(-c2ccc(C(=O)O)cc2)cc1 [Example 55, 4′-{[4-((R)-2,4-Dihydroxy-3,3-dimethyl-butyrylamino)-2-oxo-butyrylamino]-methyl}-biphenyl-4-carboxylic acid]
[1]
  IC50: < 10 nM

## CCC(=O)CCNC(=O)[C@H](O)C(C)(C)CO [Example 2, (R)-2,4-Dihydroxy-3,3-dimethyl-N-(3-oxo-pentyl)-butyramide]
[1]
  IC50: 20500 nM
